The values below come from article PMC10068595, “Novel asymmetrical azines appending 1,3,4-thiadiazole sulfonamide: synthesis, molecular structure analyses, in silico ADME, and cytotoxic effect” (RSC Advances, 2023).

Structures are written as SMILES.

Common to all, as to type: cell-based
The subject of one assay is WI 38. As to the kind of experiment: MTT cytotoxicity assay, normal lung fibroblast WI 38. Particulars: Homo sapiens, 48 h. As to the method:
(§1) HepG2, MCF-7, WI 38, Caco-2 cancer cell lines were cultured in complete media of RPMI and DMEM, respectively, at 5% carbon dioxide and 37 °C following standard tissue culture work. The cells were grown in “10% fetal bovine serum (FBS) and 1% penicillin–streptomycin” in 96-multiwell plate. All the synthesized compounds were screened for their cytotoxicity using 20 μL of MTT solution (Promega, USA) for 48 h using untreated and treated cells with concentrations of (0.01, 0.1, 1, 10, and 100 μM) for 48 h.[41,42] The plate was cultured for 3 hours. The percentage of cell viability was calculated following this equation: […]. An ELISA microplate reader was used to measure the absorbance at 690 nm to calculate the viability versus concentration, and the IC50 value using GraphPad prism software.
A general note: Tetrazolium dyes change colour on reduction, which living cells bring about.

The next assay has as its system Caco2. As to the kind of experiment: MTT cytotoxicity assay, Caco2. Particulars: Homo sapiens, Caco-2, colon cancer Caco2, 48 h. As to the method: as §1
Another assay concerns HepG-2. As to the kind of experiment: MTT cytotoxicity assay, HepG-2. Particulars: Homo sapiens, HepG2, hepatocellular carcinoma HepG-2, 48 h. As to the method:
as §1

Another assay concerns MCF-7. As to the kind of experiment: MTT cytotoxicity assay, MCF-7. Particulars: Homo sapiens, MCF7, breast cancer MCF-7, 48 h. As to the method: as §1

`COc1ccc(C=NN=C(C)c2nn(-c3ccc(S(N)(=O)=O)cc3)c(=N)s2)cc1` [Compound 7a, 4-[2-Imino-5-(-1-((4-methoxybenzylidene)hydrazineylidene)ethyl)-1,3,4-thiadiazol-3(2H)-yl]benzenesulfonamide]: the IC50 with WI 38 came out at 28.2 ± 1.5 µM; in the assay on Caco2, 3.16 ± 0.2 µM; with HepG-2, 4.17 ± 0.2 µM; with MCF-7 it was 31.5 ± 1.4 µM.
For `CC(=NN=Cc1ccc(N(C)C)cc1)c1nn(-c2ccc(S(N)(=O)=O)cc2)c(=N)s1` [Compound 7b, 4-[5-(1-((4-(Dimethylamino)benzylidene)hydrazineylidene)ethyl)-2-imino-1,3,4-thiadiazol-3(2H)-yl]benzenesulfonamide], in that order: 49.8 ± 2.6 µM, 33.6 ± 1.7 µM, 26.8 ± 1.5 µM and 35.2 ± 1.6 µM.
On the same counts, the results for `CC(=NN=Cc1ccc([N+](=O)[O-])cc1)c1nn(-c2ccc(S(N)(=O)=O)cc2)c(=N)s1` [Compound 7c, 4-[2-Imino-5-(1-((4-nitrobenzylidene)hydrazineylidene)ethyl)-1,3,4-thiadiazol-3(2H)-yl]benzenesulfonamide] are 25.4 ± 1.9 µM, 3.37 ± 0.2 µM, 3.04 ± 0.2 µM and 9.59 ± 0.4 µM.
On the same counts, the results for `COc1cc(OC)c(C=NN=C(C)c2nn(-c3ccc(S(N)(=O)=O)cc3)c(=N)s2)c(OC)c1` [Compound 9, 4-[2-Imino-5-(1-((2,4,6-trimethoxybenzylidene)hydrazineylidene)ethyl)-1,3,4-thiadiazol-3(2H)-yl]benzenesulfonamide] are 25.4 ± 1.3 µM, 47.2 ± 2.3 µM, 12.2 ± 0.7 µM and 7.21 ± 0.3 µM.
For the compound `CC(=NN=Cc1ccco1)c1nn(-c2ccc(S(N)(=O)=O)cc2)c(=O)s1` [Compound 11, 4-[5-(1-((Furan-2-ylmethylene)hydrazineylidene)ethyl)-2-oxo-1,3,4-thiadiazol-3(2H)-yl]benzene sulfonamide], the half-inhibitory concentration (IC50) came out at 24.5 ± 1.8 µM with WI 38, 8.55 ± 0.4 µM in the assay on Caco2, 15 ± 0.8 µM in the assay with HepG-2 and 3.34 ± 0.2 µM in the assay on MCF-7.
For `CC(=NN=C1C(=O)Nc2ccccc21)c1nn(-c2ccc(S(N)(=O)=O)cc2)c(=N)s1` [Compound 13, 4-[2-Imino-5-(1-((2-oxoindolin-3-ylidene)hydrazineylidene)ethyl)-1,3,4-thiadiazol-3(2H)-yl]benzenesulfonamide], in that order: 11.4 ± 0.6 µM, 8.99 ± 0.4 µM, 1.76 ± 0.1 µM and 17.7 ± 0.8 µM.
For `CC(=NN=C1C(=O)N(CN(C)C)c2ccccc21)c1nn(-c2ccc(S(N)(=O)=O)cc2)c(=N)s1` [Compound 15a, 4-[5-(1-((1-((Dimethylamino)methyl)-2-oxoindolin-3-ylidene)hydrazineylidene)ethyl)-2-imino-1,3,4-thiadiazol-3(2H)-yl]benzenesulfonamide], the IC50 in the assay on WI 38 is 13.4 ± 0.7 µM; in the assay on Caco2, 2.33 ± 0.1 µM; in the assay on HepG-2 it was 6.54 ± 0.4 µM; in the assay on MCF-7 it was 4.34 ± 0.2 µM.
On the same counts, the results for `CCN(CC)CN1C(=O)C(=NN=C(C)c2nn(-c3ccc(S(N)(=O)=O)cc3)c(=N)s2)c2ccccc21` [Compound 15b, 4-[5-(1-((1-((Diethylamino)methyl)-2-oxoindolin-3-ylidene)hydrazineylidene)ethyl)-2-imino-1,3,4-thiadiazol-3(2H)-yl)benzenesulfonamide] are 16.8 ± 0.9 µM, 0.78 ± 0.04 µM, 1.62 ± 0.1 µM and 4.43 ± 0.2 µM.

Broadly, the IC50 is the midpoint of a concentration-inhibition curve. A high value points to weaker potency.
